Results published in patent publication US5733913A, “6-Aryl pyrido[2,3-d] pyrimidines and naphthyridines for inhibiting protein tyrosine kinase mediated cellular proliferation” (priority 1995, dated 1998).
Like-named read-outs stand apart in the source and are kept apart here.

Assays:
[1] = biological target: T1, mouse PDGF-β receptor tyrosine kinase (Mus musculus, UniProt P05622); test: PDGF receptor tyrosine kinase assay; assay type: biochemical; settings: read-out: Inhibition of Protein Tyrosine Kinases, PDGF, IC50
T1 construct: a fragment of DNA that codes for the intracellular tyrosine kinase domain; made in house; host or cells: Sf9 insect cells (baculovirus), cell lysate
T1 sequence (P05622 599-961 limits assumed): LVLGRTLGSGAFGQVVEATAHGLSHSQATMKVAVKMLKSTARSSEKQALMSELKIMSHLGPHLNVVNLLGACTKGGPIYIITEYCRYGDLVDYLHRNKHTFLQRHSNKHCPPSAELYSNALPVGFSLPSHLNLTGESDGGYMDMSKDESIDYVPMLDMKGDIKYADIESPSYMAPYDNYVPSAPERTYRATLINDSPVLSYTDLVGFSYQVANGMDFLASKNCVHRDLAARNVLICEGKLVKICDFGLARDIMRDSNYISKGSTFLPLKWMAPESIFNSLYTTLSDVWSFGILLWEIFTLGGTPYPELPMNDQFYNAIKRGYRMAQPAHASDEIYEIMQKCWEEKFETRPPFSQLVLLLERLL
In short: (§1)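 Intracellular kinase domains expressed in baculovirus-infected SF9 cells; crude lysate used as enzyme. Inhibitor preincubated 10 min at 25 °C with lysate in pH 7.0 Hepes buffer with 10 mM MnCl2 and poly(Glu-Tyr) 4:1, then γ-32P-ATP (50 μM ATP) added for 10 min at 25 °C. TCA-precipitated 32P on filters counted, no-enzyme background subtracted.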

[2] = tested on: Rat aorta smooth muscle cells (RASMC); test: [3H]-Thymidine incorporation assay in RASMC; assay type: cell-based; settings: read-out: Inhibition of Growth Factor Stimulated Uptake of [3H]-thymidine (IC50)
Experimental: Cell Culture Rat aorta smooth muscle cells (RASMC) were isolated from the thoracic aorta of rats and explanted according to the method of Ross, J. Cell. Biol., 30:172-186 (1971). Cells were grown in Dulbecco's modified Eagle's medium (DMEM, Gibco) containing 10% fetal calf serum (FBS, Hyclone, Logan, Utah), 1% glutamine (Gibco) and 1% penicillin/streptomycin (Gibco). Cells were identified as smooth muscle cells by their "hill and valley" growth pattern and by fluorescent staining with a monoclonal antibody specific for SMC […] (Sigma). RASMC were used between passages 5 and 20 for all experiments. Test compounds were prepared in dimethylsulfoxide (DMSO) in order to achieve consistency in the vehicle and to ensure compound solubility. Appropriate DMSO controls were simultaneously evaluated with the test compounds. […] RASMC were plated into a 24-well plate (30,000 cells/well) in DMEM with 10% FBS. After 4 days, cells reached confluence and were made quiescent by incubation in DMEM/F12 medium (Gibco) containing 0.2% FBS for another 2 days. […] […] The acid-insoluble fraction was lysed in 0.75 mL 0.25N NaOH and the radioactivity determined by liquid scintillation counting. IC50 values were determined graphically.

[3] = biological target: T2, human FGF-1 (flg) receptor tyrosine kinase (Homo sapiens, UniProt P11362); test: FGF receptor tyrosine kinase assay; assay type: biochemical; settings: read-out: Inhibition of Protein Tyrosine Kinases, FGF, IC50
T2 construct: a fragment of DNA that codes for the intracellular tyrosine kinase domain; made in house; host or cells: Sf9 insect cells (baculovirus), cell lysate
T2 sequence (P11362 478-767 limits assumed): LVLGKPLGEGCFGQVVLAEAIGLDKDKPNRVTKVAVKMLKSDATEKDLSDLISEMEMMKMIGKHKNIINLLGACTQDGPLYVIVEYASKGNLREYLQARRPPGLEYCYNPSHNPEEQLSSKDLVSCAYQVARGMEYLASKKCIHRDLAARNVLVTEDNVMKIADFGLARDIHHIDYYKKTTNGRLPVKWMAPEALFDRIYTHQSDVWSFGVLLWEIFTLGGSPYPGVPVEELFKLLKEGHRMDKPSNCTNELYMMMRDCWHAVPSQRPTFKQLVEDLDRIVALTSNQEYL
In short: as §1

V-src kinase = V-src kinase assay; assay type: biochemical; settings: at 50 μM
In short: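 Baculovirus-expressed v-src or c-src, immunopurified on antibody-coated latex beads, phosphorylated poly GluTyr with 5 μM ATP including [32P]-ATP in Tris pH 7.5/MgCl2. Reaction ran 10 min at room temperature, TCA/pyrophosphate quench, then filtered. Incorporated label counted by liquid scintillation and compared with solvent control.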

In the case of `Cc1ccccc1-c1cc2cnc(N)nc2nc1N` [Example 90, 6-o-Tolyl-pyrido[2,3-d]pyrimidine-2,7-diamine], the IC50 [1] is reported as 8.01 µM, the IC50 ([2]; FGF stimulated) is reported as 20 µM and the IC50 ([2]; PDGF stimulated) is reported as over 10 µM. For the same compound, the IC50 [3] was 11.5 µM and the “Inhibition of Protein Tyrosine Kinases, V-src, % Inhibition” value (V-src kinase) was 16.8%.
